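Results reflect a 48-hour exposure of cells in 96-well plates to compound at five concentrations. GI50 = concentration required for 50% inhibition of growth.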 The source made the active and inactive calls. No stated cut-off is given here; in the data, active = GI50 up to about 1.1 µM and inactive = higher.
Key:
Experiment in all cases: NCI-60 cell line screen, 48 h
SK-MEL-2 = system: SK-MEL-2
LOX IMVI = system: LOX IMVI
HOP-92 = system: HOP-92
HL-60 = system: HL-60
NCI-H226 = system: NCI-H226
MDA-N = system: MDA-N
OVCAR-8 = system: OVCAR-8
MCF7 = system: MCF7
HOP-62 = system: HOP-62
OVCAR-3 = system: OVCAR-3
SF-268 = system: SF-268
UACC-257 = system: UACC-257
RPMI-8226 = system: RPMI-8226
NCI/ADR-RES = system: NCI/ADR-RES
786-0 = system: 786-0
SNB-75 = system: SNB-75
HCT-15 = system: HCT-15
HT-29 = system: HT-29
RXF 393 = system: RXF 393
NCI-H522 = system: NCI-H522

Row | Structure (SMILES) | GI50 (SK-MEL-2) | GI50 (LOX IMVI) | GI50 (HOP-92) | GI50 (HL-60) | GI50 (NCI-H226) | GI50 (MDA-N) | GI50 (OVCAR-8) | GI50 (MCF7) | GI50 (HOP-62) | GI50 (OVCAR-3) | GI50 (SF-268) | GI50 (UACC-257) | GI50 (RPMI-8226) | GI50 (NCI/ADR-RES) | GI50 (786-0) | GI50 (SNB-75) | GI50 (HCT-15) | GI50 (HT-29) | GI50 (RXF 393) | GI50 (NCI-H522)
1 | CN1C(=O)N/C(=C\c2ccc(S(=O)(=O)N/N=C/c3ccccc3)cc2)C1=O | 15 µM (inactive) | 18.1 µM (inactive) | 17.1 µM (inactive) | 4.93 µM (inactive) | 74.6 µM (inactive) | 32 µM (inactive) | 28.5 µM (inactive) | 19.1 µM (inactive) | 64.9 µM (inactive) | 30.9 µM (inactive) | 26.8 µM (inactive) | 18.4 µM (inactive) | 18.6 µM (inactive) | 27.6 µM (inactive) | 34.8 µM (inactive) | 48.3 µM (inactive) | 10.4 µM | 30.9 µM (inactive) | 21.2 µM (inactive) | 
2 | Cc1ccc(C)n2c1nc1ccc3ccccc3c12 |  |  | 40.6 µM (inactive) | > 100 µM (inactive) | > 100 µM (inactive) | > 100 µM (inactive) | > 100 µM (inactive) | 26.8 µM (inactive) | > 100 µM (inactive) | > 100 µM (inactive) | > 100 µM (inactive) | > 100 µM (inactive) | > 100 µM (inactive) | > 100 µM (inactive) | > 100 µM (inactive) | 17.3 µM (inactive) | > 100 µM | > 100 µM (inactive) | > 100 µM (inactive) | 
3 | COc1ccccc1NC(=O)C(=O)Cc1cnc2ccccc2n1 | > 100 µM (inactive) | > 100 µM (inactive) | > 100 µM (inactive) | > 100 µM (inactive) | > 100 µM (inactive) | > 100 µM (inactive) | > 100 µM (inactive) | > 100 µM (inactive) |  | > 100 µM (inactive) | > 100 µM (inactive) | > 100 µM (inactive) | > 100 µM (inactive) | > 100 µM (inactive) | > 100 µM (inactive) | 41 µM (inactive) | > 100 µM | > 100 µM (inactive) | > 100 µM (inactive) | 
4 | O=C(NNc1cn[nH]c(=O)n1)c1cccc2nc3ccccc3nc12 | 34.9 µM (inactive) | 38.8 µM (inactive) | 45.2 µM (inactive) | 22.4 µM (inactive) | 82.2 µM (inactive) | > 100 µM (inactive) | 39.3 µM (inactive) | > 100 µM (inactive) |  | 68.7 µM (inactive) | 38.7 µM (inactive) | > 100 µM (inactive) | > 100 µM (inactive) | > 100 µM (inactive) | 45.2 µM (inactive) |  | > 100 µM | > 100 µM (inactive) | 21.7 µM (inactive) | 
5 | CN1c2ccc(Cl)cc2C(=O)NC1c1ccc([N+](=O)[O-])s1 (stereo not given) | 16.4 µM (inactive) | 14.5 µM (inactive) | 14.5 µM (inactive) | 19.6 µM (inactive) |  | 16.2 µM (inactive) | 15.8 µM (inactive) | 19.6 µM (inactive) | 18.5 µM (inactive) | 15.5 µM (inactive) | 3.75 µM (inactive) | 15.1 µM (inactive) | 6.19 µM (inactive) | 15.3 µM (inactive) | 16.6 µM (inactive) | 12 µM (inactive) | 12.7 µM | 18.9 µM (inactive) | 11.6 µM (inactive) | 
6 | O=P1(C(O)c2ccccc2)N(Cc2ccccc2)[C@@H]2CCCC[C@H]2N1Cc1ccccc1 (stereo not given in full) | 27 µM (inactive) | 17.5 µM (inactive) |  | 22.3 µM (inactive) | 24.8 µM (inactive) | 31.9 µM (inactive) | 31 µM (inactive) | 34.6 µM (inactive) | 40.8 µM (inactive) | 31.2 µM (inactive) | 25.6 µM (inactive) | 21.4 µM (inactive) |  | 26.3 µM (inactive) | 20.8 µM (inactive) | 18.4 µM (inactive) | 34.5 µM | 15 µM (inactive) | 31.4 µM (inactive) | 20.7 µM (inactive)
7 | OCC(O)COCn1nncc1Cn1ncc2c(SCc3ccccc3)ncnc21 (stereo not given) | > 100 µM (inactive) | > 100 µM (inactive) |  |  |  | > 100 µM (inactive) | > 100 µM (inactive) | > 100 µM (inactive) | > 100 µM (inactive) | > 100 µM (inactive) | 14.5 µM (inactive) | > 100 µM (inactive) |  | > 100 µM (inactive) | > 100 µM (inactive) |  | > 100 µM | > 100 µM (inactive) |  | 8.89 µM (inactive)
8 | C[C@H](CC[C@@H](O)C(C)(C)O)[C@H]1CC[C@@]2(C)[C@@H]3CC=C4[C@@H](CC[C@H](O)C4(C)C)[C@]3(C)C(=O)C[C@]12C [BRYODULCOSIGENIN] | 40.7 µM (inactive) | 45.9 µM (inactive) |  | 24.5 µM (inactive) | 20.8 µM (inactive) | 22.9 µM (inactive) | 27.4 µM (inactive) | 3.05 µM (inactive) | > 50 µM (inactive) | > 50 µM (inactive) |  | 49 µM (inactive) | 13.3 µM (inactive) | 14.7 µM (inactive) | 38.3 µM (inactive) |  | 19.2 µM | 10.8 µM (inactive) |  | 31.7 µM (inactive)
9 | CC1S/C(=N\N=C2/C(=O)Nc3ccc(Br)cc32)N(C2CCCCC2)C1=O (stereo not given) | 1.45 µM (inactive) | 3.62 µM (inactive) | 7.46 µM (inactive) | 5.85 µM (inactive) | 4.03 µM (inactive) | 12.1 µM (inactive) |  | 12.5 µM (inactive) | 2.09 µM (inactive) | 2.75 µM (inactive) | 6.38 µM (inactive) | 21 µM (inactive) | 16.8 µM (inactive) | 3.4 µM (inactive) | 2.59 µM (inactive) |  | 3.87 µM | 8.69 µM (inactive) | 3.21 µM (inactive) | 
10 | CC1=CC(c2ccccc2)n2c(nc3cc4ccccc4cc32)N1 (stereo not given) | > 100 µM (inactive) | > 100 µM (inactive) | > 100 µM (inactive) | > 100 µM (inactive) | > 100 µM (inactive) | > 100 µM (inactive) | > 100 µM (inactive) | > 100 µM (inactive) |  | > 100 µM (inactive) | > 100 µM (inactive) | > 100 µM (inactive) | > 100 µM (inactive) | > 100 µM (inactive) | > 100 µM (inactive) | > 100 µM (inactive) | > 100 µM | > 100 µM (inactive) | > 100 µM (inactive) | 
11 | O=[N+]([O-])c1ccc(CN(CCCl)OCCCl)cc1 | > 100 µM (inactive) | 55.7 µM (inactive) |  | 40 µM (inactive) | > 100 µM (inactive) | > 100 µM (inactive) | > 100 µM (inactive) | 83.4 µM (inactive) | > 100 µM (inactive) | > 100 µM (inactive) | > 100 µM (inactive) | 70.1 µM (inactive) | 98.6 µM (inactive) | > 100 µM (inactive) | > 100 µM (inactive) | > 100 µM (inactive) | 91 µM | > 100 µM (inactive) | > 100 µM (inactive) | 31.3 µM (inactive)
12 | COc1ccc2nc(N/N=C/c3sccc3C)cc(C)c2c1 | 21.6 µM (inactive) | 15.6 µM (inactive) | 6.07 µM (inactive) | 18.3 µM (inactive) | 18.8 µM (inactive) | 16.5 µM (inactive) | 37.8 µM (inactive) | 22.5 µM (inactive) | 16.4 µM (inactive) | 18.8 µM (inactive) | 16.5 µM (inactive) | 17 µM (inactive) | 9.38 µM (inactive) | 21.6 µM (inactive) | 14.4 µM (inactive) | 15 µM (inactive) | 14.1 µM | 8.67 µM (inactive) | 19.1 µM (inactive) | 
13 | CC(C)(C)OC(=O)[C@@H]1ON2O[C@H](OC3CCCC3(c3ccccc3)c3ccccc3)C[C@H]3OC(=O)[C@@H]1[C@H]32 (stereo not given in full) | 14.8 µM (inactive) | 31.4 µM (inactive) |  |  | 36.9 µM (inactive) | 61.7 µM (inactive) |  | 70 µM (inactive) | 61.1 µM (inactive) | 16.1 µM (inactive) | 34.4 µM (inactive) | 71.3 µM (inactive) |  | 33.9 µM (inactive) | 50.1 µM (inactive) | 25.8 µM (inactive) | 31.8 µM | 38.8 µM (inactive) | 25.7 µM (inactive) | 32.2 µM (inactive)
14 | COC(=O)c1sc(=O)sc1SCc1cccc(CSc2sc(=O)sc2C(=O)OC)c1 | 47.9 µM (inactive) | > 100 µM (inactive) | 24.2 µM (inactive) |  | 61.4 µM (inactive) | 68.9 µM (inactive) | 37.2 µM (inactive) | 9.33 µM (inactive) | 16 µM (inactive) | 23.9 µM (inactive) | 27.3 µM (inactive) | 70.5 µM (inactive) |  | 62.4 µM (inactive) | 17.6 µM (inactive) |  | > 100 µM | > 100 µM (inactive) | 26 µM (inactive) | 29 µM (inactive)
15 | c1cn[nH]c1 [PYRAZOLE] | > 10 µM (inactive) | > 10 µM (inactive) | > 10 µM (inactive) | > 10 µM (inactive) | > 10 µM (inactive) | > 10 µM (inactive) | > 10 µM (inactive) | > 10 µM (inactive) | > 10 µM (inactive) | > 10 µM (inactive) | > 10 µM (inactive) |  | > 10 µM (inactive) | > 10 µM (inactive) | > 10 µM (inactive) | > 10 µM (inactive) | > 10 µM | > 10 µM (inactive) | > 10 µM (inactive) | 
16 | O=C(O)C(=Cc1ccc(-c2ccc([N+](=O)[O-])cc2)o1)C(=O)O | > 100 µM (inactive) | > 100 µM (inactive) |  | > 10 µM (inactive) | > 100 µM (inactive) | > 100 µM (inactive) | > 100 µM (inactive) | > 100 µM (inactive) | < 0.01 µM (active) | > 100 µM (inactive) | > 100 µM (inactive) | > 100 µM (inactive) | > 100 µM (inactive) | > 100 µM (inactive) | > 100 µM (inactive) | > 100 µM (inactive) | > 100 µM | > 100 µM (inactive) | > 100 µM (inactive) | > 100 µM (inactive)
